According to patent US8772309B2, “Pharmaceutical formulation of apomorphine for buccal administration” (Amarin Pharmaceuticals Ireland Limited, priority 2005, dated 2014):

Tests used:
[1] = Ionisation of apomorphine (pKa, un-ionised proportion against pH); type: physicochemical
Text: For optimal buccal absorption the apomorphine used should ideally be un-ionised at physiological pH.
If the pH of the product is adjusted to about 8.0, approximately 10% of the apomorphine becomes un-ionised and thus available for absorption. The pH-dependent degree of ionisation of the drug is maintained by a dynamic equilibrium. As un-ionised drug is removed by absorption, more ionised drug becomes un-ionised in order to restore the equilibrium. As a result there is always a sufficient amount of un-ionised drug generated that can be absorbed rapidly.

[2] = tested on: "on-off" fluctuations in Parkinson's disease; conditions: sublingual administration, patients responsive to subcutaneous apomorphine; cited from earlier work

## CN1CCc2cccc3c2[C@H]1Cc1ccc(O)c(O)c1-3 [apomorphine]
[1]; pH 3.5
  Proportion of apomorphine un-ionised: negligible
[1]; pH adjusted to about 8.0
  Proportion of apomorphine un-ionised: approximately 10%
[2]
  Mean time to onset of effect: approximately 30 minutes
